Experimental data: PMC6311682, “Design, Synthesis, and Biological Evaluation of 2-Nitroimidazopyrazin-one/-es with Antitubercular and Antiparasitic Activity” (Journal of Medicinal Chemistry, 2018)
Values after ≈ are worked out from the molar mass of the structure shown. Values joined by “and” are separate entries in the source; they are usually repeats but may differ in a detail not shown here. Equal values may be shown once. Read-outs that look alike come from different tables or passages of the source.

Experiments:
M. tuberculosis (H37Rv) [1] = assay: M. tuberculosis H37Rv resazurin reduction microplate MIC assay, normoxic conditions; format: cell-based; settings: Mycobacterium tuberculosis, normoxia, read-out: antibacterial MIC M. tuberculosis normoxia
M. tuberculosis (H37Rv) [2] = assay: M. tuberculosis H37Rv resazurin reduction microplate MIC assay, hypoxic conditions (0.1% oxygen); format: cell-based, Mycobacterium tuberculosis; settings: for MIC: Mycobacterium tuberculosis, H37Rv, hypoxia (0.1% oxygen), read-out: antibacterial MIC M. tuberculosis hypoxia
HepG2 cells = system: HepG2 cells; parameters: method as in Jarrad et al. 2; settings: ATCC HB-8065; ref Jarrad et al. 2; read-out: cytotoxicity CC50 HepG2; cited from earlier work
HEK293 cells = system: HEK293 cells; parameters: method as in Jarrad et al. 2; settings: ATCC CRL-1573; ref Jarrad et al. 2; read-out: cytotoxicity CC50 HEK 293; cited from earlier work
[3] = system: E. histolytica (HM1:IMSS); assay: ATP-bioluminescence cell growth and survival assay, E. histolytica trophozoites; format: cell-based; settings: Entamoeba histolytica
[4] = Broth microdilution MIC assay, ESKAPE pathogens; format: cell-based; settings: S. aureus, E. coli, K. pneumoniae, A. baumannii, P. aeruginosa; read-out: antibacterial MIC ESKAPE
[5] = system: ESKAPE pathogens S. aureus (ATCC 43300), E. coli (ATCC 25922), K. pneumoniae (ATCC 700603), A. baumannii (ATCC 19606), P. aeruginosa (ATCC 27853); assay: Broth microdilution MIC assay, ESKAPE pathogens; format: cell-based
[6] = system: L. donovani MHOM/IN/80/DD8 (ATCC50212); assay: L. donovani DD8 intracellular (THP-1) amastigote assay; format: cell-based; settings: Leishmania donovani
[7] = system: C. albicans (ATCC 90028) and C. neoformans (H99, ATCC 208821); assay: Broth microdilution MIC assay, fungi; format: cell-based; settings: for MIC: Candida albicans, read-out: antifungal MIC
[8] = system: C. difficile (630, ATCC BAA-1382); assay: Broth microdilution MIC assay, C. difficile; format: cell-based, Clostridium difficile; settings: 630 ATCC BAA-1382, median MIC; for MIC: Clostridioides difficile, ATCCBAA1382, read-out: antibacterial MIC C. difficile
[9] = system: T. b. brucei (strain 427, BS427); assay: 384-well resazurin viability assay, T. b. brucei bloodstream parasites; format: cell-based; settings: Trypanosoma brucei, BS427, n = 2
[10] = Mammalian cytotoxicity assay (resazurin), HepG2; settings: human, HepG2 cells
[11] = Mammalian cytotoxicity assay (resazurin), HEK293; settings: human, HEK293 cells
[12] = Kinetic solubility determination by LC-UV; settings: room temperature, 1% DMSO
G. lamblia (WB line) = assay: ATP-bioluminescence cell growth and survival assay, G. lamblia trophozoites; format: cell-based; settings: Giardia duodenalis
[13] = read-out: antiparasitic IC50 E. histolytica
[14] = read-out: antiparasitic pIC50 ± SE E. histolytica (converted)
[15] = read-out: antiparasitic IC50 L. donovani
[16] = read-out: antiparasitic pIC50 ± SE L. donovani (converted)
[17] = read-out: antiparasitic IC50 T. b. brucei
[18] = PBS, pH 7.4, Solubility µM (PBS), PBS pH 7.4, 24 h
[19] = water, Solubility µM (H2O), 24 h
[20] = read-out: antiparasitic IC50 G. lamblia

NC(=O)c1ncc([N+](=O)[O-])[nH]1 [16a]
MIC (M. tuberculosis (H37Rv) [1]): > 32 mg/L
MIC (M. tuberculosis (H37Rv) [2]): > 32 mg/L
CC50 (HepG2 cells): > 100 µM
CC50 (HEK293 cells): > 100 µM

O=c1c2nc([N+](=O)[O-])cn2ccn1Cc1cccc(C(F)(F)F)c1 [17h, 2-Nitro-7-(3-(trifluoromethyl)benzyl)imidazo[1,2-a]pyrazin-8(7H)-one]
IC50 [3, 13]: > 50 µM
IC50 [3, 14]: > 50.1 µM
MIC [4]: > 32 mg/L
antibacterial MIC ESKAPE [5]: >32 mg/L
IC50 [6, 15]: > 40 µM
IC50 [6, 16]: > 39.8 µM
M. tuberculosis hypoxia % I (M. tuberculosis (H37Rv) [2]; @ 0.06–16 μg/mL): 70–90% I @ 0.06–16 μg/mL

CC(=O)OCCn1c(-c2ccccc2)cn2cc([N+](=O)[O-])nc2c1=O [24b, 2-(2-Nitro-8-oxo-6-phenylimidazo[1,2-a]pyrazin-7(8H)-yl)ethyl Acetate]
antifungal MIC [7]: >32 mg/L
MIC [7]: > 32 mg/L
MIC [8]: 64 mg/L
IC50 [9, 17]: < 1 µM
CC50 at 24 h [10]: > 100 µM
MIC [4]: > 32 mg/L
antibacterial MIC ESKAPE [5]: >32 mg/L
IC50 [6, 15]: > 80 µM
IC50 [6, 16]: > 79.4 µM
CC50 at 24 h [11]: > 100 µM
solubility at 24 h [12, 18]: 187 ± 17.4 µM
solubility at 24 h [12, 19]: 164 ± 7.57 µM

Cc1cccc(Cn2ccn3cc([N+](=O)[O-])nc3c2=O)c1 [17g, 7-(3-Methylbenzyl)-2-nitroimidazo[1,2-a]pyrazin-8(7H)-one]
IC50 [3, 13]: > 50 µM
IC50 [3, 14]: > 50.1 µM
MIC [4]: > 32 mg/L
antibacterial MIC ESKAPE [5]: >32 mg/L
IC50 [6, 15]: > 20 µM
IC50 [6, 16]: > 20 µM
solubility at 24 h [12, 18]: < 5 µM
solubility at 24 h [12, 19]: < 5 µM
M. tuberculosis hypoxia % I (M. tuberculosis (H37Rv) [2]; @ 0.125–8 μg/mL): 70–90% I @ 0.125–8 μg/mL

O=c1c2nccn2ccn1Cc1ccccc1 [20b, 7-Benzylimidazo[1,2-a]pyrazin-8(7H)-one]
MIC [7]: > 32 mg/L
IC50 [3, 13]: > 25 µM
IC50 [3, 14]: > 25.1 µM
MIC [8]: > 64 mg/L
IC50 [9, 17]: > 40 µM
IC50 ([9]; read-out: antiparasitic pIC50 ± SE T. b. brucei (converted)): > 39.8 µM
CC50 at 24 h [10]: > 100 µM
MIC [4]: > 32 mg/L
MIC (M. tuberculosis (H37Rv) [1]): > 32 mg/L
IC50 [6, 15]: > 80 µM
IC50 [6, 16]: > 79.4 µM
CC50 at 24 h [11]: > 100 µM
MIC (M. tuberculosis (H37Rv) [2]): > 32 mg/L
IC50 (G. lamblia (WB line); [20]): > 25 µM
IC50 (G. lamblia (WB line); read-out: antiparasitic pIC50 ± SE G. lamblia (converted)): > 25.1 µM

O=c1c2nc([N+](=O)[O-])cn2ccn1CCc1ccc(OC(F)(F)F)cc1 [17m, 2-Nitro-7-(4-(trifluoromethoxy)phenethyl)imidazo[1,2-a]pyrazin-8(7H)-one]
IC50 [3, 13]: > 50 µM
IC50 [3, 14]: > 50.1 µM
MIC [8]: 64 mg/L (≈ 174 µM)
MIC [4]: > 32 mg/L
antibacterial MIC ESKAPE [5]: >32 mg/L
MIC (M. tuberculosis (H37Rv) [1]): 8 mg/L (≈ 21.7 µM)
IC50 [6, 15]: > 80 µM
IC50 [6, 16]: > 79.4 µM
solubility at 24 h [12, 18]: < 5 µM
solubility at 24 h [12, 19]: < 5 µM
IC50 (G. lamblia (WB line); [20]): 1.6 to 3.2 µM

O=C(NO)c1nc([N+](=O)[O-])cn1Cc1ccc(OC(F)(F)F)cc1 [28j]
M. tuberculosis hypoxia % I (M. tuberculosis (H37Rv) [2]; at 32 μg/mL): 60% and 60–75%
CC50 (HepG2 cells): > 100 µM
CC50 (HEK293 cells): 36 µM

CC(=O)OCCn1c(C)cn2cc([N+](=O)[O-])nc2c1=O [25b, 2-(6-Methyl-2-nitro-8-oxoimidazo[1,2-a]pyrazin-7(8H)-yl)ethyl Acetate]
antifungal MIC [7]: >32 mg/L
MIC [7]: > 32 mg/L
antibacterial MIC C. difficile [8]: >64 mg/L
MIC [8]: > 64 mg/L
IC50 [9, 17]: < 1 µM
CC50 at 24 h [10]: > 100 µM
MIC [4]: > 32 mg/L
antibacterial MIC ESKAPE [5]: >32 mg/L
IC50 [6, 15]: > 80 µM
IC50 [6, 16]: > 79.4 µM
CC50 at 24 h [11]: > 100 µM
solubility at 24 h [12, 18]: > 200 µM
solubility at 24 h [12, 19]: > 200 µM

O=C(NCc1ccc(OC(F)(F)F)cc1)c1ncc([N+](=O)[O-])[nH]1 [16c]
M. tuberculosis hypoxia % I (M. tuberculosis (H37Rv) [2]; at 32 μg/mL): 75% and 60–75%
CC50 (HepG2 cells): 104 µM
CC50 (HEK293 cells): 93 µM

Cc1ccc(CCn2ccn3cc([N+](=O)[O-])nc3c2=O)cc1 [17n, 7-(4-Methylphenethyl)-2-nitroimidazo[1,2-a]pyrazin-8(7H)-one]
IC50 [3, 13]: > 50 µM
IC50 [3, 14]: > 50.1 µM
antibacterial MIC C. difficile [8]: >64 mg/L
MIC [8]: > 64 mg/L
MIC [4]: > 32 mg/L
antibacterial MIC ESKAPE [5]: >32 mg/L
MIC (M. tuberculosis (H37Rv) [1]): 4 mg/L (≈ 13.4 µM)
IC50 [6, 15]: > 80 µM
IC50 [6, 16]: > 79.4 µM
solubility at 24 h [12, 18]: < 5 µM
solubility at 24 h [12, 19]: < 5 µM
IC50 (G. lamblia (WB line); [20]): 1.6 to 3.2 µM
